# Experimental data reported in patent publication US20230083973A1, “SUBSTITUTED CYCLOPROPYL-2,2'-BIP[…], ANALOGUES THEREOF, AND METHODS USING SAME” (priority 2019, published 2023).
# Tested on: HBsAg
# Assay: HBsAg assay: inhibition of HBsAg in HepG2.2.15 cells (chemiluminescence immunoassay of supernatant)
# Format: cell-based, hepatitis B virus
# Conditions: Hepatitis B virus, HepG2.2.15, 144 h, read-out: sAg EC50, HepG2.2.15 cells; HBsAg in supernatant at day 6 after exposure to compound; 0.5% DMSO
# Experimental: Inhibition of HBsAg was determined in HepG2.2.15 cells. Cells were maintained in culture medium containing 10% fetal calf serum, […], Glutamine, penicillin/streptomycin. Cells were seeded in 96-well collagen-coated plate at a density of 30,000 cells/well. Serially diluted compounds were added to cells next day at the final DMSO concentration of 0.5%. Cells were incubated with compounds for 2-3 days, after which medium was removed. Fresh medium containing compounds was added to cells for additional 3-4 days. At day 6 after exposure of compounds, supernatant was collected, the HBsAg immunoassay (microplate-based chemiluminescence immunoassay kits, CLIA, Autobio Diagnosics Co., Zhengzhou, China, Catalog # CL0310-2) was used to determine the level of HBsAg according to manufactory instruction. Dose-response curves were generated and the EC50 value (effective concentrations that achieved 50% inhibitory effect) were determined using XLfit software. In addition, cells were seeded at a density of 5,000 cells/well for determination of cell viability in the presence and absence of compounds by using CellTiter-Glo reagent (Promega).
# Table 1 illustrates EC50 values obtained by the HBsAg assay for selected compounds.
row,Compound,EC50 [nM]
1,"COc1ccc(C2CC2c2cnc(-c3ncccn3)nc2)cc1OC (single isomer, unassigned) [Example 31, trans-5-(2-(3,4-Dimethoxyphenyl)cyclopropyl)-2,2′-bipyrimidine]",330
2,"Cc1nc2c(F)cc([C@@H]3C[C@H]3c3cnc(-c4ncccn4)nc3)cc2s1 (relative stereo) [Example 272, trans-6-(2-([2,2′-Bipyrimidin]-5-yl)cyclopropyl)-4-fluoro-2-methylbenzo[d]thiazole]",73
3,"Fc1cc(F)c2nc([C@@H]3C[C@H]3c3cnc(-c4ncccn4)nc3)sc2c1 (relative stereo) [Example 270, trans-2-(2-([2,2′-Bipyrimidin]-5-yl)cyclopropyl)-4,6-difluorobenzo[d]thiazole]",500
4,"COc1cc([C@@H]2C[C@H]2c2cnc(-c3cnccn3)nc2)cc(F)c1F (relative stereo) [Example 178, trans-5-(2-(3,4-Difluoro-5-methoxyphenyl)cyclopropyl)-2-(pyrazin-2-yl)pyrimidine]",460
5,"COc1cc(C2CC2c2cnc(-c3ncccn3)nc2C)ccc1F (single isomer, unassigned) [Example 17, trans-5-(2-(4-Fluoro-3-methoxyphenyl)cyclopropyl)-4-methyl-2,2′-bipyrimidine]",650
6,"COCCCn1cnc2c(F)cc([C@@H]3C[C@H]3c3cnc(-c4ncccn4)nc3)cc21 (relative stereo) [Example 274, trans-6-(2-([2,2′-Bipyrimidin]-5-yl)cyclopropyl)-4-fluoro-1-(3-methoxypropyl)-1H-benzo[d]imidazole]",64
7,"COc1cc([C@@H]2C[C@H]2c2cnc(-c3ncccn3)nc2)ccc1OC(F)(F)F (relative stereo) [Example 152, trans-5-(2-(3-Methoxy-4-(trifluoromethoxy)phenyl)cyclopropyl)-2,2′-bipyrimidine]",700
8,"COc1cc2ncn(-c3cc([C@@H]4C[C@H]4c4cnc(-c5ncccn5)nc4)cc(F)c3F)c2cc1OC (relative stereo) [Example 237, trans-1-(5-(2-([2,2′-Bipyrimidin]-5-yl)cyclopropyl)-2,3-difluorophenyl)-5,6-dimethoxy-1H-benzo [d]imidazole]",200
9,"COCc1cnn(-c2cc([C@@H]3C[C@H]3c3cnc(-c4ncccn4)nc3)cc(F)c2F)c1 (relative stereo) [Example 236, trans-5-(2-(3,4-Difluoro-5-(4-(methoxymethyl)-1H-pyrazol-1-yl)phenyl)cyclopropyl)-2,2′-bipyrimidine]",78
10,"c1cnc(-c2ncc([C@@H]3C[C@H]3c3cccc4ccccc34)cn2)nc1 (relative stereo) [Example 166, trans-5-(2-(Naphthalen-1-yl)cyclopropyl)-2,2′-bipyrimidine]",65
11,"COc1cc([C@@H]2C[C@H]2c2cnc(-c3ncccc3F)nc2)cc(F)c1F (relative stereo) [Example 179, trans-5-(2-(3,4-Difluoro-5-methoxyphenyl)cyclopropyl)-2-(3-fluoropyridin-2-yl)pyrimidine]",370
12,"CN(c1cc([C@@H]2C[C@H]2c2cnc(-c3ncccn3)nc2)cc(F)c1F)C1COC1 (relative stereo) [Example 233, trans-N-(5-(2-([2,2′-Bipyrimidin]-5-yl)cyclopropyl)-2,3-difluorophenyl)-N-methyloxetan-3-amine]",84

# Same assay, conditions: read-out: sAg EC50; HepG2.2.15 cells; HBsAg in supernatant at day 6 after exposure to compound; 0.5% DMSO
row,Compound,EC50 [nM]
1,"CN1CCN(c2cc(C3CC3c3cnc(-c4ncccn4)nc3)ccc2F)CC1 (single isomer, unassigned) [Example 187, trans-5-(2-(4-Fluoro-3-(4-methylpiperazin-1-yl)phenyl)cyclopropyl)-2,2′-bipyrimidine]",15000
2,"COCCCOc1cc(F)c(Cl)cc1C1CC1c1cnc(-c2ncccn2)nc1 (single isomer, unassigned) [Example 154, trans-5-(2-(5-Chloro-4-fluoro-2-(3-methoxypropoxy)phenyl)cyclopropyl)-2,2′-bipyrimidine]",300
3,"Fc1ccc(C2CC2c2ccnc(-c3ncccn3)n2)cc1F (single isomer, unassigned) [Example 6, trans-4-(2-(3,4-Difluorophenyl)cyclopropyl)-2,2′-bipyrimidine]",10000
4,"COCCOc1cc(F)c(Cl)cc1C1CC1c1cnc(-c2ncccn2)nc1 (single isomer, unassigned) [Example 157, trans-5-(2-(5-Chloro-4-fluoro-2-(2-methoxyethoxy)phenyl)cyclopropyl)-2,2′-bipyrimidine]",49000
5,"Fc1cc(C2CC2c2cnc(-c3ncccn3)nc2)cc(OC2CCCC2)c1F (single isomer, unassigned) [Example 245, trans-5-(2-(3-(Cyclopentyloxy)-4,5-difluorophenyl)cyclopropyl)-2,2′-bipyrimidine]",5000
6,"CCCc1cc(F)c(OC)cc1C1CC1c1cnc(-c2ncccn2)nc1 (single isomer, unassigned) [Example 37, trans-5-(2-(4-Fluoro-5-methoxy-2-propylphenyl)cyclopropyl)-2,2′-bipyrimidine]",2000
7,"COc1cc(C2CC2c2cnc(-c3ncccn3)nc2-c2ccccc2)ccc1F (single isomer, unassigned) [Example 142, trans-5-(2-(4-Fluoro-3-methoxyphenyl)cyclopropyl)-4-phenyl-2,2′-bipyrimidine]",5000
8,"COc1cc(C2CC2c2cnc(-c3ncccn3)nc2)c(Cl)cc1Cl (single isomer, unassigned) [Example 89, trans-5-(2-(2,4-Dichloro-5-methoxyphenyl)cyclopropyl)-2,2′-bipyrimidine]",610
9,"COc1cc(C2CC2c2cnc(-c3ncccn3)nc2)c(F)cc1Cl (single isomer, unassigned) [Example 87, trans-5-(2-(4-Chloro-2-fluoro-5-methoxyphenyl)cyclopropyl)-2,2′-bipyrimidine]",140
10,"CN1CC[C@@H](Nc2cc(C3CC3c3cnc(-c4ncccn4)nc3)cc(F)c2F)C1 (single isomer, unassigned) [Example 230]",7000
11,"CO[C@@H]1CCN(c2cc(C3CC3c3cnc(-c4ncccn4)nc3)cc(F)c2F)C1 (single isomer, unassigned) [Example 96]",93
12,"COc1cc(C2CC2c2cnc(-c3ncccn3)nc2)cnc1OC (single isomer, unassigned) [Example 184, trans-5-(2-(5,6-Dimethoxypyridin-3-yl)cyclopropyl)-2,2′-bipyrimidine]",1100
13,"Fc1cc(C2CC2c2cnc(-c3ncccn3)nc2)cc(O[C@H]2CCOC2)c1F (single isomer, unassigned) [Example 249]",800
14,"CN1CCN(c2cc(C3CC3c3cnc(-c4ncccn4)nc3)ccc2F)CC1 (single isomer, unassigned) [Example 188, trans-5-(2-(4-Fluoro-3-(4-methylpiperazin-1-yl)phenyl)cyclopropyl)-2,2′-bipyrimidine]",4000
15,"CC(=O)N1CC[C@@H](Nc2cc(C3CC3c3cnc(-c4ncccn4)nc3)cc(F)c2F)C1 (single isomer, unassigned) [Example 227]",270
16,"CN(C)c1cc(C2CC2c2cnc(-c3ncccn3)nc2)ccc1F (single isomer, unassigned) [Example 63, trans-5-(2-([2,2′-Bipyrimidin]-5-yl)cyclopropyl)-2-fluoro-N,N-dimethylaniline]",390
